# Source: patent US20070122503A1, “USE OF EXTRACTS FROM CIMICIFUGA RACEMOSA AND OF TECTORIGENIN AS AN ESTROGEN-TYPE, ORGANOSELECTIVE MEDICAMENT HAVING NO UTEROTROPHIC EFFECT” (BIONORICA ARZNEIMITTEL GMBH, priority 1998, published 2007)
# Key:
# Format in all cases: in vivo, rat
# [1] = system: ovariectomized Sprague-Dawley rats; test: Acute experiment, single i.v. injection of Belamcanda sinensis extract: serum LH
# Procedure: All experiments described below were carried out with ovariectomized Sprague-Dawley rats (=ovx rats) having a weight between 240 and 280 g. The onset of the effect of the estradiol-type effect of Belamcanda sinensis extract occurs very quickly. Even after a single i.v. administration of vehicle, estradiol and Belamcanda sinensis extract to ovx rats, pulsatility ceases both under E2 and under Belamcanda sinensis. […] Cremophor is an emulsifier on the basis of polyethoxylated castor oil derivatives. The results are represented in FIG. 2. […] On the day of the experiment, 6 blood samples were taken at 10-min intervals. Immediately following taking of the 6th sample, 62.5 mg of the Belamcanda sinensis extract or 10 μg 17-β-estradiol (E2) or the solvent (5%) cremophor in isotonic NaCl 1 ml), respectively, were injected intravenously, and blood samples were taken for another 2 hours in 10-minute intervals. 6 hours after the intravenous administration, the animals were decapitated, blood was obtained and the uteri removed, weighed and deep-frozen in liquid nitrogen.
# [2] = system: uterine VEGF, IGF1 and C3 genes, CCO gene; test: Acute experiment, single i.v. injection: uterine gene expression; settings: six hours after single i.v. injection; vs controls
# Procedure: All experiments described below were carried out with ovariectomized Sprague-Dawley rats (=ovx rats) having a weight between 240 and 280 g. […] On the day of the experiment, 6 blood samples were taken at 10-min intervals. Immediately following taking of the 6th sample, 62.5 mg of the Belamcanda sinensis extract or 10 μg 17-β-estradiol (E2) or the solvent (5%) cremophor in isotonic NaCl 1 ml), respectively, were injected intravenously, and blood samples were taken for another 2 hours in 10-minute intervals. 6 hours after the intravenous administration, the animals were decapitated, blood was obtained and the uteri removed, weighed and deep-frozen in liquid nitrogen.
# [3] = system: ovariectomized Sprague-Dawley rats; test: Subacute test, daily s.c. injection through 7 days (Belamcanda sinensis): body weight, uterus weight, serum LH; settings: 7 days daily s.c., 62.5 mg extract or 10 μg estradiol
# Procedure: In the blood samples, LH and the estradiol immunoreactivity were determined.
# [4] = system: uterine VEGF gene, CCO gene; test: Subacute test 7 days s.c. (Belamcanda sinensis): gene expression in uterine mRNA extract; settings: after one-week treatment, 10 μg estradiol s.c. daily
# Procedure: (§1) All experiments described below were carried out with ovariectomized Sprague-Dawley rats (=ovx rats) having a weight between 240 and 280 g.
# The effects of repeated administration of estradiol, Belamcanda sinensis extract and vehicle on overall weight, uterus weight, hormone level and gene activation of uterus and bone were examined on ovariectomized rats after daily s.c. application through seven days.
# 8 animals each per test group (24 altogether) were daily injected subcutaneously between 8:00 and 9:00 a.m. with 62.5 mg Belamcanda sinensis extract and 10 μg estradiol or the solvent (cremophor 5%, 1 ml), respectively. 6 h after the last application, the animals were decapitated and from every animal the aorta, the uterus and the left femur head were removed, cleaned, and frozen in liquid nitrogen.
# [5] = system: collagen-1A1, osteocalcin, IGF1 and TGFβ-mRNA, CCO gene in femur head; test: Subacute test 7 days s.c. (Belamcanda sinensis): mRNA expression in extracts of the femur head; settings: 7 days daily s.c.
# Procedure: In extracts of the femur head, the collagen-1A1, osteocalcin, IGF1 and TGFβ-mRNA expression was determined.
# [6] = system: ovariectomized Sprague-Dawley rats; test: Repeated s.c. administration of Cimicifuga racemosa over 7 days: uterus weight, vagina, LH; settings: 7 days s.c. once daily
# Procedure: (§5) 14 days following ovarectomy at the earliest, the animals have the respective test substance injected subcutaneously in a dose of 62.5 mg Cimicifuga racemosa/rat or 8 pg estradiol/rat once daily in the morning over a period of 7 days. Both substances were dissolved in 5% cremophor, the control animals only received the vehicle.
# The LH concentration in the blood of the animals was determined by means of RIA.
# [7] = system: mRNA for the estrogen receptor; test: Repeated administration of Cimicifuga racemosa: mRNA expression in preoptic region of the hypothalamus (RT-PCR); settings: 7 days s.c.; semi-quantitative RT-PCR
# Procedure: Both substances were dissolved in 5% cremophor, the control animals only received the vehicle.
# (§6) Following decapitation of the animals, brains, uterus and femur were prepared for mRNA-recovery. […] The expression of the estrogen-regulated genes in the above identified organs was determined by means of semi-quantitative RT-PCR.
# (§7) As another marker for the estrogenic effect, the activation of mRNA of estrogen-inducible proteins was measured. What was measured here was tissue from uterus, from bone tissue (femur) and from the preoptic region of the hypothalamus.
# [8] = system: mRNA for collagen 1 and osteocalcin; test: Repeated administration of Cimicifuga racemosa: mRNA expression in bone (femur) (RT-PCR); settings: 7 days s.c., semi-quantitative RT-PCR
# Procedure: as §5, §6, §7
# [9] = system: mRNA for IGF1 and complement factor C3; test: Repeated administration of Cimicifuga racemosa: mRNA expression in uterus (RT-PCR); settings: 7 days s.c.; semi-quantitative RT-PCR
# Procedure: as §5, §6
# What was measured here was tissue from uterus, from bone tissue (femur) and from the preoptic region of the hypothalamus.
# [10] = system: ovariectomized Sprague-Dawley rats; test: One-time i.v. administration of tectorigenin: LH levels in the blood; settings: single i.v. 7 mg tectorigenin
# Procedure: as §1
# (§2) Following a single administration of tectorigenin, the time development of influence on the LH levels in the blood and the estradiol-type immunoreactivity were determined. The concentration of tectorigenin in the blood of the animals, determined with the aid of E2-RIA, after 20 min corresponds to about 100 pg equivalent estradiol.
# (§3) Execution: OVX rats had catheters placed in the vena jugularis externa under ether anesthesia 24 hours before the beginning of the experiment, in accordance with the method of Harms and Ojeda (Harms P G; Ojeda S R: A rapid and simple procedure for chronic cannulation of the rat jugular vein. J. Appl. Physiol. (1974) 36: 391-392). The tube end was positioned in a skin pocket in the neck. In order not to have to touch the animals for obtaining the blood samples, the catheter was prolonged with the aid of a silicone tube. Catheter and tube were rinsed with Ringer solution containing 50 IU heparin/ml.
# Blood samples of 100 μl each were drawn from the animals at 10-min intervals, and the withdrawn volume replaced with Ringer/heparin solution. After the 6th sample, 1.0 ml of the respective test solution was applied intravenously. As test solutions there were used: 2% cremophor (=vehicle solution), tectorigenin 7 mg/ml vehicle, 17-β-estradiol 10 μg/ml vehicle. Blood was taken at ten-minute intervals through additional 140 min.
# The blood samples thus obtained were filled into a 0.5 ml Eppendorf reaction vessel containing 10 μl heparin-Losung (5000 IU/ml, Liquemin), centrifuged for 10 min at 10 000*g, and the plasma stored at −20° C. until performance of the radioimmunoassays.
# (§4) The RIAs for LH and Prolaktin are based on antisera, reference and iodisation preparations from NIH (Bethesda, Md., USA). The concentrations of estradiol and of the cross-reactive isoflavones were measured with the aid of an RIA from DPC, Bad Nauheim.
# [11] = One-time i.v. administration of tectorigenin: estradiol-type immunoreactivity in blood (E2-RIA); settings: after 20 min; single i.v. 7 mg tectorigenin; ovx rats
# Procedure: as §1, §2
# as §3, with “heparin/ml. […]” for “heparin/ml.”
# as §4
compound,measurement,setting,value
"C[C@]12CC[C@@H]3c4ccc(O)cc4CC[C@H]3[C@@H]1CC[C@@H]2O [E2, 17-β-estradiol]",LH pulsatility,"[1]; 62.5 mg extract or 10 μg E2, ovx rats",ceases
same,serum LH levels,"[1]; 62.5 mg extract or 10 μg E2, prior to and 2 hours after injection, vs previous values and cremophor controls",significant inhibitions
same,expression of the uterine C3 gene,[2],clear increase
same,expression of the uterine IGF1 gene,[2],clear increase
same,expression of the uterine VEGF gene,[2],clear increase
same,average body weights,[3]; vs cremophor,significantly lighter
same,uterus weights,[3]; vs cremophor,more than tripled
same,serum LH levels,[3]; vs cremophor controls,more marked
same,gene expression of VEGF in uterine mRNA extract,[4],149 % of the control value
same,IGF1 mRNA expression in femur head,[5],significantly inhibited
same,TGFβ mRNA expression in femur head,[5],significantly inhibited
same,collagen-1A1 mRNA expression in femur head,[5],significantly inhibited
same,constitutive CCO gene expression in femur head,[5],without having an influence
same,osteocalcin mRNA expression in femur head,[5],significantly inhibited
same,"LH concentrations in the blood, mean values","[6]; 62.5 mg Cimicifuga racemosa/rat or 8 pg estradiol/rat, n=8, RIA",7.83 ng/mL
same,"Uterus weights (wet), mean values","[6]; 62.5 mg Cimicifuga racemosa/rat or 8 pg estradiol/rat, n=8, ovx rats",702.1 mg
same,LH levels compared with vehicle (in words),[6]; ovx rats,lowered significantly
same,hornification of the vaginal epithelium tissue,[6]; ovx rats,quite contrary
same,uterus weight compared with vehicle (in words),[6]; ovx rats,more than three times the weight
same,expression of the mRNA for the estrogen receptor in the preoptic region of the hypothalamus,[7],stimulate
same,expression of the mRNA for osteocalcin in bone tissue,[8],"reduces, in analogy with estradiol"
same,expression of the mRNA for the bone-specific collagen 1 in bone tissue,[8],"reduces, in analogy with estradiol"
same,mRNA for IGF1 in the uterus,[9],increases
same,mRNA for complement factor C3 in the uterus,[9],increases
COc1c(O)cc2occ(-c3ccc(O)cc3)c(=O)c2c1O [tectorigenin],kinetics of the LH reduction up to 60 min following i.v. administration,[10]; compared with 10 μg 17-β-estradiol,precisely correspond to the one of estradiol
same,LH levels in the blood,[10]; ovx rats,rapid LH reduction
same,course of LH after 60 min following i.v. administration,[10]; sampling to 140 min,do not result in further reduction but slowly increases again
same,"concentration of tectorigenin in the blood, determined with E2-RIA",[11],about 100 pg equivalent estradiol
